Assay [1] has as its system differentiating definitive endoderm (DE) cell cultures. In words: 96-well plate impedance assay (ACEA) on differentiating definitive endoderm at lowest effective dose. Format: cell-based, human. The arrangement: key: Viable: Compounds that did not appear to be cytotoxic toward differentiating DE cultures were marked as “viable”, meaning that the compound did not affect the survival, growth, proliferation or differentiation of the differentiated cells. The conditions noted are these: at the lowest effective dose on either hESC or NPC. An excerpt:
The impedance assay on the hESCs using the compounds in Table 4 above gave greater than twenty (20) hits. However, the ideal candidate compound of the present invention should not only be inhibitory or cytotoxic to human pluripotent stem cells, such as hESCs or hIPSCs, but should at the same time have no effect on cell viability of differentiated or differentiating cell populations including Stage 1, 2, 3, 4 and 5 type cells cultures (definitive endoderm, foregut endoderm, posterior foregut, pancreatic endoderm and endocrine cells, respectively). […] Approximately 3×10^4 hES cells were plated per well and grown for 24 hrs in DC-HAIF defined medium (i.e. StemPro® hESC SFM medium (Life Technologies, Carlsbad, Calif.). Stage 1 or definitive endoderm differentiation was then induced by changing the medium and culturing in RPMI, 100 ng/mL Activin A, and 10 ng/mL of FGF2. […] of GSK-3 beta Inhibitor 15 (Calbiochem #361558) as added to the culture for the first 24 hours of differentiation only. 10 μM of each of the candidate compounds were added about 48 hours or 2 days after differentiation was induced (see FIGS. 3 C & D, large arrowhead), and the cells were cultured for an additional 2 days.
Using a range of different concentrations from 0.1 to 50 μM, the forty compounds in Table 6 were re-screened (secondary screen) using hESCS and NPCs. The effective dose (ED) was defined as the lowest concentration of a compound that elicited cytotoxicity during the secondary screen. […] The darker wells were indicative of the increased numbers or percentages of proliferating or growing pluripotent stem cells in the wells. In addition, these 40 compounds were screened on differentiating definitive endoderm (DE) cell cultures in 96-well plate impedance assays (described above) to determine which of these compounds were not cytotoxic to definitive endoderm cells at the lowest effective dose on either hESC or NPC. […] See “ACEA DE” column in Table 6.

Assay [2] deals with hESC suspension aggregate cultures, Stages 1-4 (pancreatic endoderm). Description: Q-PCR marker gene expression, suspension aggregate cultures differentiated through Stages 1-4. It is filed as cell-based, human. The conditions noted are these: for PDX1 and NKX6.1 gene expression: Stages 2, 3 and 4, compared to the Controls. The source says:
FIGS. 5A-5M. are bar graphs showing the relative gene expression levels of markers expressed in pluripotent cells or in cells of pancreatic lineage: OCT4 (FIG. 5A), MIXL (FIG. 5B), EOMES (FIG. 5C), CXCR4 (FIG. 5D), SOX17 (FIG. 5E), HNF1B (FIG. 5F), HNF4A (FIG. 5G), PDX1 (FIG. 5H), PTF1A (FIG. 5I), NKX2.2. (FIG. 5J), NGN3 (FIG. 5K), NKX6.1 (FIG. 5L) and PAX4 (FIG. 5M) with treatment of candidate selective cytotoxic agents from the LOPAC1280™ sublibrary (Table 4) to suspension aggregate cell cultures at Stages 1-4. Expression levels are normalized to the average expression levels of housekeeping genes. The graphs depict fold regulation compared to hESC sample. Ch.Cl=chelerythrine chloride; Deph.=dephostatin; AG=AG 490; SU=SU6656.
FIGS. 6A-6F are bar graphs showing the relative gene expression levels of markers of non-pancreatic lineage cells: SOX1 (FIG. 6A; e.g., at least observed in extraembryonic and neural cellss), ZIC1 (FIG. 6B; e.g., at least observed in early neural cells), PAX6 (FIG. 6C; e.g., at least observed in neural ectoderm cells), SOX7 (FIG. 6D; e.g., at least observed in extraembryonic cells), AFP (FIG. 6E; e.g., at least observed in liver cell and extraembryonic cells) and CDX2 (FIG. 6F; e.g., at least observed in extraembryonic cells) in compound-treated differentiations.
Effects of Candidate Inhibitor/Cytotoxic Agents in Suspension Aggregate Culture. The ideal inhibitor candidate for cell therapy would be compatible with pancreatic cell lineage viability in a manufacturing scale-up process (e.g. a suspension aggregate culture that could be propagated in a large bioreactor), as well as in small-scale cell culture, such as in 96-well plates or 6-well trays. Thus, an additional screen included conditions similar to those in a commercial-scale process. […] The remaining 4 compounds, chelerythrine chloride (Ch.Cl; Cmpd. No. 25), tyrphostin AG 490 (AG; Cmpd. No. 152), dephostatin (Deph; Cmpd. No. 48), and SU 6656 (SU; Cmpd. No. 126) were screened for selective inhibition of pluripotent stem cell growth in a suspension aggregate type culture, which is amenable to manufacturing scale-up process. Briefly, Human ESCs were aggregated in rotational culture and differentiated through Stages 1-4 to make pancreatic endoderm substantially as described in U.S. patent application Ser. No. 11/838,054, entitled COMPOSITIONS AND METHODS USEFUL FOR CULTURING DIFFERENTIABLE CELLS, filed Aug. 13, 2007; and U.S. patent application Ser. No. 12/264,760, entitled STEM CELL AGGREGATE SUSPENSION COMPOSITIONS AND METHODS OF DIFFERENTIATION THEREOF, filed Nov. 4, 2008, which are herein incorporated by reference in their entirety. RNA samples were collected from control and compound-treated cell cultures at various time points during the differentiation as above, for analysis by Q-PCR. FIGS. 5A-5M show the expression of markers characteristic of pluripotent stem cells or at least one of Stages 1-5. FIGS. 6A-6F show the expression of markers not normally expressed in pluripotent stem cells or Stages 1-5. Each graph includes 5 sections: QPCR samples were normalized to day 0 (hESC), which is the “Control” section farthest left on each graph of FIGS. 5A-5M; the other four sections to the right of the Control section correspond to the four compounds used to treat the cells (chelerythrine chloride (Ch.Cl; Cmpd. No. 25); tyrphostin AG 490 (AG490; Cmpd. No. 152), dephostatin (Deph; Cmpd. No. 48), and SU 6656 (SU6656; Cmpd. No. 126) left to right, respectively).

Here are results for four compounds from patent publication US9365830B2, “Agents and methods for inhibiting human pluripotent stem cell growth” (VIACYTE, INC., priority 2010, dated 2016).

For the compound “22, 23-dihydroavermectin B1a+22,23-dihydroavermectin B1b [Ivermectin]”, in assay [1], the “ACEA DE” value is “Viable”.

Consider `CN(N=O)c1cc(O)ccc1O` [Dephostatin], for which the “differentiation of non-pancreatic lineage cells, or “off-target” cells” value in assay [2] (FIGS. 6A-6F) is “do not promote”. Moreover, the “PDX1 and NKX6.1 gene expression” value in assay [2] is “increased”.

With `CN(C)S(=O)(=O)c1ccc2c(c1)/C(=C/c1cc3c([nH]1)CCCC3)C(=O)N2` [SU 6656], in assay [2] (FIG. 6F), the “CDX2 gene expression (non-pancreatic marker)” value is recorded as “elevated”. For the same compound, the “PDX1 and NKX6.1 gene expression” value in assay [2] is on record as “increased”. Further, the “ACEA DE” value in assay [1] is given as “Viable”.

`N#C/C(=C\c1ccc(O)c(O)c1)C(=O)NCc1ccccc1` [Tyrphostin AG 490]: the “AFP gene expression (non-pancreatic marker)” value in assay [2] (FIG. 6E) is reported as “elevated”. The “PDX1 and NKX6.1 gene expression” value in assay [2] is reported as “reduced”. Besides, in assay [1], the “ACEA DE” value is reported as “Viable”.
